Results on 5 molecules are retold here after the supplement of paper PMC10307832.

In the first test the test system is NCI-H2347. Description: relative viability (nuclei count vs DMSO), 5 days (fraction); higher = more cells survive. To be noted: first compound 0.8 µM. The essentials:
(§1)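 Each reported value is a median over duplicate plates. It expresses relative viability: treated-well nuclei count divided by vehicle-well nuclei count. Lung cancer cell lines in 1536-well plates were dosed by pin tool a day after seeding, alone with one drug or with a fixed anchor-drug dose plus five library-drug doses (not always all listed) in √10 steps, and nuclei were counted after 5 days.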
With `Oc1nc(-c2ccc(C(F)(F)F)cc2)nc2c1CSCC2` [XAV939] + CC(=O)c1c(C)c2cnc(Nc3ccc(N4CCNCC4)cn3)nc2n(C2CCCC2)c1=O [Palbociclib] (partner 0.5 µM), the relative viability came out at 0.435.
In turn, `C=C1C(=O)O[C@@H](CCCCCCCC)[C@@H]1C(=O)O` [C-75] + CC(=O)c1c(C)c2cnc(Nc3ccc(N4CCNCC4)cn3)nc2n(C2CCCC2)c1=O [Palbociclib] (partner 0.5 µM) came in with a relative viability of 0.35.
Consider `C=C1C(=O)O[C@@H](CCCCCCCC)[C@@H]1C(=O)O` [C-75] + Nc1ncn([C@H]2C[C@H](O)[C@@H](CO)O2)c(=O)n1 [Decitabine] (partner 2 µM), for which the relative viability was determined as 0.653.

The same test, now with this note: first compound 2.53 µM.
In turn, `Oc1nc(-c2ccc(C(F)(F)F)cc2)nc2c1CSCC2` [XAV939] + O=C(CCCCCCC(=O)Nc1ccccc1)NO [Vorinostat] (partner 1 µM) gave a relative viability of 0.414.
In the case of `Oc1nc(-c2ccc(C(F)(F)F)cc2)nc2c1CSCC2` [XAV939] + O=C(c1cc(Cc2n[nH]c(=O)c3ccccc23)ccc1F)N1CCN(C(=O)C2CC2)CC1 [Olaparib] (partner 8 µM), the relative viability was found to be 0.517.
In turn, `Oc1nc(-c2ccc(C(F)(F)F)cc2)nc2c1CSCC2` [XAV939] + CC(=O)c1c(C)c2cnc(Nc3ccc(N4CCNCC4)cn3)nc2n(C2CCCC2)c1=O [Palbociclib] (partner 0.5 µM) had a relative viability of 0.429.
As to `C=C1C(=O)O[C@@H](CCCCCCCC)[C@@H]1C(=O)O` [C-75] + CC(=O)c1c(C)c2cnc(Nc3ccc(N4CCNCC4)cn3)nc2n(C2CCCC2)c1=O [Palbociclib] (partner 0.5 µM), the relative viability came to 0.389.
Take `C=C1C(=O)O[C@@H](CCCCCCCC)[C@@H]1C(=O)O` [C-75] + Nc1ncn([C@H]2C[C@H](O)[C@@H](CO)O2)c(=O)n1 [Decitabine] (partner 2 µM): the relative viability amounted to 0.572.

Still in this test, the particulars now being: first compound 8 µM.
`C=C1C(=O)O[C@@H](CCCCCCCC)[C@@H]1C(=O)O` [C-75] + CC(=O)c1c(C)c2cnc(Nc3ccc(N4CCNCC4)cn3)nc2n(C2CCCC2)c1=O [Palbociclib] (partner 0.5 µM) gave a relative viability of 0.413.
Same read-out and setting: with `C=C1C(=O)O[C@@H](CCCCCCCC)[C@@H]1C(=O)O` [C-75] + Nc1ncn([C@H]2C[C@H](O)[C@@H](CO)O2)c(=O)n1 [Decitabine] (partner 2 µM) the figure was 0.659.

Another test concerns COR-L23. The test is described as above. To be noted: first compound 0.08 µM. In outline:
as §1
In turn, `Oc1nc(-c2ccc(C(F)(F)F)cc2)nc2c1CSCC2` [XAV939] + O=C(CCCCCCC(=O)Nc1ccccc1)NO [Vorinostat] (partner 1 µM) yielded a relative viability of 0.443.
As to `Oc1nc(-c2ccc(C(F)(F)F)cc2)nc2c1CSCC2` [XAV939] + O=C(c1cc(Cc2n[nH]c(=O)c3ccccc23)ccc1F)N1CCN(C(=O)C2CC2)CC1 [Olaparib] (partner 8 µM), the relative viability stood at 0.321.
Molecule `Oc1nc(-c2ccc(C(F)(F)F)cc2)nc2c1CSCC2` [XAV939] + CC(=O)c1c(C)c2cnc(Nc3ccc(N4CCNCC4)cn3)nc2n(C2CCCC2)c1=O [Palbociclib] (partner 0.5 µM) had a relative viability of 0.291.
The molecule `C=C1C(=O)O[C@@H](CCCCCCCC)[C@@H]1C(=O)O` [C-75] + CC(=O)c1c(C)c2cnc(Nc3ccc(N4CCNCC4)cn3)nc2n(C2CCCC2)c1=O [Palbociclib] (partner 0.5 µM) came in with a relative viability of 0.353.
On the same count and under the same terms, under `C=C1C(=O)O[C@@H](CCCCCCCC)[C@@H]1C(=O)O` [C-75] + Nc1ncn([C@H]2C[C@H](O)[C@@H](CO)O2)c(=O)n1 [Decitabine] (partner 2 µM) stands 0.483.

The same test, now with this note: first compound 0.253 µM.
`Oc1nc(-c2ccc(C(F)(F)F)cc2)nc2c1CSCC2` [XAV939] + O=C(CCCCCCC(=O)Nc1ccccc1)NO [Vorinostat] (partner 1 µM) had a relative viability of 0.472.
On the same count and under the same terms, under `Oc1nc(-c2ccc(C(F)(F)F)cc2)nc2c1CSCC2` [XAV939] + O=C(c1cc(Cc2n[nH]c(=O)c3ccccc23)ccc1F)N1CCN(C(=O)C2CC2)CC1 [Olaparib] (partner 8 µM) stands 0.386; under `Oc1nc(-c2ccc(C(F)(F)F)cc2)nc2c1CSCC2` [XAV939] + CC(=O)c1c(C)c2cnc(Nc3ccc(N4CCNCC4)cn3)nc2n(C2CCCC2)c1=O [Palbociclib] (partner 0.5 µM), 0.261; under `C=C1C(=O)O[C@@H](CCCCCCCC)[C@@H]1C(=O)O` [C-75] + CC(=O)c1c(C)c2cnc(Nc3ccc(N4CCNCC4)cn3)nc2n(C2CCCC2)c1=O [Palbociclib] (partner 0.5 µM), 0.305.
On to `C=C1C(=O)O[C@@H](CCCCCCCC)[C@@H]1C(=O)O` [C-75] + Nc1ncn([C@H]2C[C@H](O)[C@@H](CO)O2)c(=O)n1 [Decitabine] (partner 2 µM), for which the relative viability worked out at 0.486.

The same test, now with this note: first compound 0.8 µM.
`Oc1nc(-c2ccc(C(F)(F)F)cc2)nc2c1CSCC2` [XAV939] + O=C(CCCCCCC(=O)Nc1ccccc1)NO [Vorinostat] (partner 1 µM) displayed a relative viability of 0.483.
In turn, `Oc1nc(-c2ccc(C(F)(F)F)cc2)nc2c1CSCC2` [XAV939] + O=C(c1cc(Cc2n[nH]c(=O)c3ccccc23)ccc1F)N1CCN(C(=O)C2CC2)CC1 [Olaparib] (partner 8 µM) returned a relative viability of 0.315.
Take `Oc1nc(-c2ccc(C(F)(F)F)cc2)nc2c1CSCC2` [XAV939] + CC(=O)c1c(C)c2cnc(Nc3ccc(N4CCNCC4)cn3)nc2n(C2CCCC2)c1=O [Palbociclib] (partner 0.5 µM): the relative viability turned out to be 0.237.
Regarding `C=C1C(=O)O[C@@H](CCCCCCCC)[C@@H]1C(=O)O` [C-75] + CC(=O)c1c(C)c2cnc(Nc3ccc(N4CCNCC4)cn3)nc2n(C2CCCC2)c1=O [Palbociclib] (partner 0.5 µM), the relative viability was determined as 0.255.
The molecule `C=C1C(=O)O[C@@H](CCCCCCCC)[C@@H]1C(=O)O` [C-75] + Nc1ncn([C@H]2C[C@H](O)[C@@H](CO)O2)c(=O)n1 [Decitabine] (partner 2 µM) gave a relative viability of 0.415.

Still in this test, the particulars now being: first compound 2.53 µM.
For the molecule `Oc1nc(-c2ccc(C(F)(F)F)cc2)nc2c1CSCC2` [XAV939] + O=C(CCCCCCC(=O)Nc1ccccc1)NO [Vorinostat] (partner 1 µM), the relative viability came to 0.39.
For `Oc1nc(-c2ccc(C(F)(F)F)cc2)nc2c1CSCC2` [XAV939] + O=C(c1cc(Cc2n[nH]c(=O)c3ccccc23)ccc1F)N1CCN(C(=O)C2CC2)CC1 [Olaparib] (partner 8 µM), the relative viability worked out at 0.29.
For `Oc1nc(-c2ccc(C(F)(F)F)cc2)nc2c1CSCC2` [XAV939] + CC(=O)c1c(C)c2cnc(Nc3ccc(N4CCNCC4)cn3)nc2n(C2CCCC2)c1=O [Palbociclib] (partner 0.5 µM), the relative viability worked out at 0.249.
For the molecule `C=C1C(=O)O[C@@H](CCCCCCCC)[C@@H]1C(=O)O` [C-75] + CC(=O)c1c(C)c2cnc(Nc3ccc(N4CCNCC4)cn3)nc2n(C2CCCC2)c1=O [Palbociclib] (partner 0.5 µM), the relative viability was found to be 0.24.
Still for that read-out and setting: under `C=C1C(=O)O[C@@H](CCCCCCCC)[C@@H]1C(=O)O` [C-75] + Nc1ncn([C@H]2C[C@H](O)[C@@H](CO)O2)c(=O)n1 [Decitabine] (partner 2 µM) stands 0.459.
